Structures are written as SMILES. Read-outs that look alike come from different tables or passages of the source.

The nature of data set [1]: Observation of electrostatic properties of the crystal forms (glass bottle storage, weighing). As to conditions: for electrostatic effect (sticking to scoop and weighing paper): during the weighing; for wall-hanging phenomenon: stored in a glass bottle. The format is physicochemical.
Data set [2] can be described thus: Stability test of crystal form I of lurbinectedin (XRPD and HPLC purity after storage). Format: physicochemical.
Data set [3] can be described thus: Applicant's experimental study of the stability of crystal Form A of CN114940682A. The format is physicochemical.
For data set [4] the following is noted: during its manipulation; cited from earlier work.
Data set [5] is classed as physicochemical. Conditions: for chemical stability (assessment in words) / physical stability (assessment in words): 10 days under long-term and accelerated conditions; for product purity: after 10 days at 25° C./60% RH and 40° C./75% RH; for purity: sealed and stored at −20° C. for 120 days.
[6] abbreviates: Group 2, kept in dark, sealed, 2-8° C. for 12 months.
Where [7] appears, read: Group 3, kept in dark, sealed, −20° C. for 20 months.
The mark [8] stands for this setting: stored at −20° C. in the dark and sealed, and at 2-8° C. in the dark and sealed.
Where [9] appears, read: 10 days under long-term (25° C./60% RH) and accelerated (40° C./75% RH) conditions.
Setting [10] is: Group 6, sealed and stored at −20° C. for 120 days.

Turning to `COc1ccc2[nH]c3c(c2c1)CCN[C@]31CS[C@@H]2c3c(OC(C)=O)c(C)c4c(c3[C@H](COC1=O)N1[C@@H]2[C@H]2c3c(cc(C)c(OC)c3O)C[C@@H]([C@@H]1O)N2C)OCO4` [crystal form I, lurbinectedin], in data set [1], the “electrostatic effect (sticking to scoop and weighing paper)” value (“electrostatic effect” below) is on record as “do not show electrostatic effect or the effect is not obvious”; the wall-hanging phenomenon entry is “no wall-hanging phenomenon or the phenomenon is not obvious”. For the same molecule, in data set [2] (Group 1, initial moment), the “Crystal form of lurbinectedin (XRPD)” value is reported as “crystal form I” and the HPLC purity is 99.91%. In data set [2] (setting [6]), the “Crystal form of lurbinectedin (XRPD)” value is given as “crystal form I” and the HPLC purity stood at 99.68%. In addition, in data set [2] (setting [7]), the “Crystal form of lurbinectedin (XRPD)” value is “crystal form I” and the HPLC purity worked out at 99.65%. Besides, the “time the crystal form remains stable” value in data set [2] (stored at 2-8° C. or −20° C.) is on record as “at least 12 months”. Also, in data set [2] (setting [8]), the “crystal form” value was “remained unchanged” and the “product purity” value is reported as “above 99%”.
On to `COc1ccc2[nH]c3c(c2c1)CCN[C@]31CS[C@@H]2c3c(OC(C)=O)c(C)c4c(c3[C@H](COC1=O)N1[C@@H]2[C@H]2c3c(cc(C)c(OC)c3O)C[C@@H]([C@@H]1O)N2C)OCO4` [crystal Form A, lurbinectedin], for which the “stability of the crystal form” value in data set [3] (at room temperature, converts into other crystal forms readily) was “highly unstable”; in data set [3] (at −20° C.), “stable”.
For `COc1ccc2[nH]c3c(c2c1)CCN[C@]31CS[C@@H]2c3c(OC(C)=O)c(C)c4c(c3[C@H](COC1=O)N1[C@@H]2[C@H]2c3c(cc(C)c(OC)c3O)C[C@@H]([C@@H]1O)N2C)OCO4` [Form A, lurbinectedin], in data set [4], the static electricity entry was “has static electricity”.
For the molecule `COc1ccc2[nH]c3c(c2c1)CCN[C@]31CS[C@@H]2c3c(OC(C)=O)c(C)c4c(c3[C@H](COC1=O)N1[C@@H]2[C@H]2c3c(cc(C)c(OC)c3O)C[C@@H]([C@@H]1O)N2C)OCO4` [crystal form IV, lurbinectedin], the “electrostatic effect” value in data set [1] is reported as “do not show electrostatic effect or the effect is not obvious”. In addition, in data set [1], the wall-hanging phenomenon entry was “no wall-hanging phenomenon or the phenomenon is not obvious”. In addition, the XRPD crystal form result in data set [5] (setting [9]) is listed as “remained unchanged”; in data set [5] (sealed, −20° C. for 120 days) it was “remained unchanged”; in data set [5] (sealed, −20° C. for 120 days, listed as Crystal form IV), “unchanged”. Further, the “chemical stability (assessment in words)” value in data set [5] is given as “excellent”. In addition, in data set [5], the “physical stability (assessment in words)” value is “excellent”. The HPLC purity in data set [5] (Group 1, 0 day) turned out to be 99.90%; in data set [5] (Group 2, 25° C./60% RH-5 days), 99.86%; in data set [5] (Group 3, 25° C./60% RH-10 days), 99.74%; in data set [5] (Group 4, 40° C./75% RH-5 days), 99.79%; in data set [5] (Group 5, 40° C./75% RH-10 days), 99.78%; in data set [5] (setting [10]), 99.91%. Besides, the “product purity” value in data set [5] is “above 99%”. Besides, the “purity” value in data set [5] is recorded as “above 99%”.
Consider `COc1ccc2[nH]c3c(c2c1)CCN[C@]31CS[C@@H]2c3c(OC(C)=O)c(C)c4c(c3[C@H](COC1=O)N1[C@@H]2[C@H]2c3c(cc(C)c(OC)c3O)C[C@@H]([C@@H]1O)N2C)OCO4` [crystal form III, lurbinectedin], for which the “electrostatic effect” value in data set [1] is on record as “do not show electrostatic effect or the effect is not obvious”. The wall-hanging phenomenon result in data set [1] is listed as “no wall-hanging phenomenon or the phenomenon is not obvious”. Moreover, the XRPD crystal form result in data set [5] (setting [9]) was “remained unchanged”; in data set [5] (sealed, −20° C. for 120 days), “remained unchanged”; in data set [5] (sealed, −20° C. for 120 days, listed as Crystal form III), “unchanged”. Moreover, in data set [5], the “chemical stability (assessment in words)” value is “excellent”. Besides, the “physical stability (assessment in words)” value in data set [5] is given as “excellent”. Also, the HPLC purity is given as 99.61% in data set [5] (Group 1, 0 day); 99.48% in data set [5] (Group 2, 25° C./60% RH-5 days); 99.42% in data set [5] (Group 3, 25° C./60% RH-10 days); 99.48% in data set [5] (Group 4, 40° C./75% RH-5 days); 99.37% in data set [5] (Group 5, 40° C./75% RH-10 days); 99.60% in data set [5] (setting [10]). The “product purity” value in data set [5] is recorded as “above 99%”. Moreover, the “purity” value in data set [5] is “above 99%”.
As to `COc1ccc2[nH]c3c(c2c1)CCN[C@]31CS[C@@H]2c3c(OC(C)=O)c(C)c4c(c3[C@H](COC1=O)N1[C@@H]2[C@H]2c3c(cc(C)c(OC)c3O)C[C@@H]([C@@H]1O)N2C)OCO4` [crystal form V, lurbinectedin], in data set [1], the “electrostatic effect” value is “do not show electrostatic effect or the effect is not obvious”; the wall-hanging phenomenon result is reported as “no wall-hanging phenomenon or the phenomenon is not obvious”.
As to `COc1ccc2[nH]c3c(c2c1)CCN[C@]31CS[C@@H]2c3c(OC(C)=O)c(C)c4c(c3[C@H](COC1=O)N1[C@@H]2[C@H]2c3c(cc(C)c(OC)c3O)C[C@@H]([C@@H]1O)N2C)OCO4` [crystal form II, lurbinectedin], in data set [1], the “electrostatic effect” value is “do not show electrostatic effect or the effect is not obvious”. The wall-hanging phenomenon entry in data set [1] is reported as “no wall-hanging phenomenon or the phenomenon is not obvious”. The XRPD crystal form entry in data set [5] (setting [9]) was “remained unchanged”; in data set [5] (sealed, −20° C. for 120 days) it was “remained unchanged”; in data set [5] (sealed, −20° C. for 120 days, listed as Crystal form II), “unchanged”. For the same molecule, in data set [5], the “chemical stability (assessment in words)” value is on record as “excellent”. Besides, the “physical stability (assessment in words)” value in data set [5] is reported as “excellent”. Besides, the HPLC purity amounted to 99.59% in data set [5] (Group 1, 0 day); 99.40% in data set [5] (Group 2, 25° C./60% RH-5 days); 99.41% in data set [5] (Group 3, 25° C./60% RH-10 days); 99.41% in data set [5] (Group 4, 40° C./75% RH-5 days); 99.41% in data set [5] (Group 5, 40° C./75% RH-10 days); 99.58% in data set [5] (setting [10]). Moreover, the “product purity” value in data set [5] is “above 99%”. Also, the “purity” value in data set [5] is reported as “above 99%”.
Turning to `COc1ccc2[nH]c3c(c2c1)CCN[C@]31CS[C@@H]2c3c(OC(C)=O)c(C)c4c(c3[C@H](COC1=O)N1[C@@H]2[C@H]2c3c(cc(C)c(OC)c3O)C[C@@H]([C@@H]1O)N2C)OCO4` [crystal form B, lurbinectedin, reference compound], the “electrostatic effect” value in data set [1] is “obvious electrostatic effect”. The wall-hanging phenomenon result in data set [1] is on record as “exhibits wall-hanging phenomenon”. Also, the XRPD crystal form entry in data set [5] (setting [9]) is recorded as “remained unchanged”; in data set [5] (10 days under long-term (25° C./60% RH) and accelerated (40° C./75% RH) conditions, listed as Crystal form B), “unchanged for 10”; in data set [5] (sealed, −20° C. for 120 days), “remained unchanged”; in data set [5] (sealed, −20° C. for 120 days, listed as Crystal form B) it was “unchanged”. Besides, in data set [5], the “chemical stability (assessment in words)” value is “relatively poor”. Besides, in data set [5], the “physical stability (assessment in words)” value was “excellent”. Also, the HPLC purity in data set [5] (Group 1, 0 day) is on record as 99.62%; in data set [5] (Group 2, 25° C./60% RH-5 days), 99.44%; in data set [5] (Group 3, 25° C./60% RH-10 days), 99.05%; in data set [5] (Group 4, 40° C./75% RH-5 days), 99.13%; in data set [5] (Group 5, 40° C./75% RH-10 days), 99.24%; in data set [5] (setting [10]), 99.60%. Further, the “product purity” value in data set [5] is on record as “decreased”. The “purity” value in data set [5] was “above 99%”.
